Assay [1] has as its system Streptococcus pyogenes C 203. Briefly: In vivo antibacterial activity, experimental pulmonary infection in mouse. The conditions noted are these: Streptococcus pyogenes, C203, ip, 240 h, intraperitoneal single dose, read-out: average protecting dose PD50. Here is the method:
The in vivo antibacterial activity of the compounds of formula (I), expressed as average protecting dose PD50 (mg/Kg), was evaluated by means of experimental pulmonary infection induced in mouse by Streptococcus pyogenes (example 23).
b) In vivo antibacterial activity
The therapeutical effectiveness, expressed as average protecting dose (PD50), of the considered compounds of formula (I) was evaluated by experimental pulmonary infection induced in mouse by Streptococcus pyogenesC 203.
Charles River albin mice (strain CD 1), of body weight comprised between 23-35 g, stabulated in groups of 6 for cage and normo-feeded with standard diet and water ad libitum were used. A suspension of S. pyogenes C 203 (corresponding about to 10^8 UFC) in tryptose broth (0.05 ml) was intranasally administered to each mouse anesthesized with a mixture of ethyl ether and chloroform.
The compounds under examination were intraperitoneally administered as a single dose, in 0.2% Tween suspension, 24 hours before or 1 hour after the infection.
Mice mortality observation was prolonged up to 10 days from the infection.
PD50 calculation, expressed as (mg/Kg), was carried out through the analysis of probit.
In vivo antibacterial activity, expressed as average protecting dose PD50 (mg/Kg), 24 hours before and 1 hour after the experimental pulmonary infection induced in mouse by Streptococcus pyogenes C 203, of the compounds 4, 10, 16-19, 21, 23, 26-27, 29-30, 33-35 and 38 and of the reference compounds Roxithromycin and Clarithromycin.

In assay [2] the test system is Klebsiella pneumoniae ZC 2. Briefly: In vitro antibacterial activity, MIC, broth microdilution. It is filed as cell-based. Particulars: Klebsiella pneumoniae, ZC2; K. pneumoniae ZC 2; MHB; 37° C., 18 hours; read-out: minimum inhibiting concentration MIC. On the procedure: (§1) a) In vitro antibacterial activity The determination of the minimum inhibiting concentrations (MIC), with respect to Gram-positive and Gram-negative bacteria was carried out through the micromethod of gradual broth dilution in double series [National Committee for Clinical Laboratory Standards, 1990; Methods for dilution antimicrobial susceptibility tests for bacteria that grow aerobically; Approved standards […], Villanova, Pa.], by using Mueller Hinton Broth (MHB) as a culture medium. In the case of […] bacteria, horse serum at 5% (Streptococcus pneumoniae and Streptococcus pyogenes) was added to the medium. Roxithromycin and Clarithromycin [The Merck Index, XI Ed., No. 8253 and 2340, respectively] were used as reference macrolides. MIC, expressed as (μg/ml), were determined after incubation of the microplates at 37° C. for 18 hours, evaluating the lowest antibiotic concentration enabling the inhibition of bacterial development.
A general note: In broth dilution the organism is exposed to a series of concentrations in liquid medium.

The test system of assay [3] is Streptococcus pyogenes C 203. The description is as above. The conditions noted are these: Streptococcus pyogenes, C203; S. pyogenes C 203; MHB + 5% horse serum; 37° C., 18 hours; read-out: minimum inhibiting concentration MIC. It is filed as cell-based. On the procedure: as §1
Assay [4] has as its system Streptococcus pyogenes A 26. The assay is described as above. In kind it is cell-based. The conditions noted are these: Streptococcus pyogenes, A26; S. pyogenes A 26; MHB + 5% horse serum; 37° C., 18 hours; read-out: minimum inhibiting concentration MIC. Here is the method:
as §1

The test system of assay [5] is Streptococcus pneumoniae BS 4. Described as above. In kind it is cell-based. Particulars: Streptococcus pneumoniae, BS4; S. pneumoniae BS 4; MHB + 5% horse serum; 37° C., 18 hours; read-out: minimum inhibiting concentration MIC. Here is the method: as §1
Assay [6] has as its system Staphylococcus aureus PV 14. Described as above. Particulars: Staphylococcus aureus, PV14; S. aureus PV 14; MHB; 37° C., 18 hours; read-out: minimum inhibiting concentration MIC. In kind it is cell-based. On the procedure:
as §1

In assay [7] the test system is Escherichia coli ATCC 25922. Described as above. In kind it is cell-based. The conditions noted are these: Escherichia coli, ATCC25922; E. coli ATCC 25922; MHB; 37° C., 18 hours; read-out: minimum inhibiting concentration MIC. On the procedure: as §1
Assay [8] has as its system Enterococcus faecalis ATCC 29212. The assay is described as above. Particulars: Enterococcus faecalis, ATCC29212; E. faecalis ATCC 29212; MHB; 37° C., 18 hours; read-out: minimum inhibiting concentration MIC. It is filed as cell-based. Here is the method: as §1
Assay [9] relates to Streptococcus pneumoniae BS 3. Described as above. It is filed as cell-based. Particulars: Streptococcus pneumoniae, BS3; S. pneumoniae BS 3; MHB + 5% horse serum; 37° C., 18 hours; read-out: minimum inhibiting concentration MIC. On the procedure:
as §1

≈ marks a conversion by molar mass, not a printed value. Like-named read-outs stand apart in the source and are kept apart here.

Regarding `CC[C@H]1OC(=O)[C@H](C)[C@@H](O[C@H]2C[C@@](C)(OC)[C@@H](O)[C@H](C)O2)[C@H](C)[C@@H](O[C@@H]2O[C@H](C)C[C@H](N(C)C)[C@H]2O)[C@](C)(O)C[C@@H](C)/C(=N\OCCNCCCCCCNCc2ccc(OC)cc2)[C@H](C)[C@@H](O)[C@]1(C)O` [Compound 17, Erythromycin A (E)-9-[0-[2-[6-[(4-methoxyphenyl)methylamino]hexylamino]ethyl]oxime]], the ED50 in assay [1] (1 hour after infection) was determined as 1.17 mg/kg; in assay [1] (24 hours before infection), 8.16 mg/kg. Further, the MIC in assay [2] was 16 µg/mL (≈ 15.8 µM); in assay [3], 0.0039 µg/mL; in assay [4] it was 0.0625 µg/mL; in assay [5] it was 0.0625 µg/mL; in assay [6], 0.25 µg/mL (≈ 0.247 µM); in assay [7] it was 4 µg/mL (≈ 3.96 µM). In addition, the results for the MIC in assay [8] and in assay [9] were 4 µg/mL (≈ 3.96 µM) and 0.0312 µg/mL, respectively.

In the case of `CC[C@H]1OC(=O)[C@H](C)[C@@H](O[C@H]2C[C@@](C)(OC)[C@@H](O)[C@H](C)O2)[C@H](C)[C@@H](O[C@@H]2O[C@H](C)C[C@H](N(C)C)[C@H]2O)[C@](C)(O)C[C@@H](C)/C(=N\OCCNCCCCCCNCc2ccc3c(c2)OCO3)[C@H](C)[C@@H](O)[C@]1(C)O` [Compound 18, Erythromycin A (E)-9-[0-[2-[6-[(3,4-methylenedioxyphenyl)methylamino]hexylamino]ethyl]oxime]], the ED50 in assay [1] (1 hour after infection) was 1.32 mg/kg; in assay [1] (24 hours before infection), 2.23 mg/kg. Also, the MIC was 16 µg/mL (≈ 15.6 µM) in assay [2]; 0.0078 µg/mL in assay [3]; 0.0312 µg/mL in [4]; 0.0312 µg/mL in assay [5]; 0.25 µg/mL (≈ 0.244 µM) in [6]; 2 µg/mL (≈ 1.95 µM) in [7]. Besides, the figures for the MIC in [8] and in assay [9] were 2 µg/mL (≈ 1.95 µM) and 0.0156 µg/mL, respectively.

As to `CC[C@H]1OC(=O)[C@H](C)[C@@H](O[C@H]2C[C@@](C)(OC)[C@@H](O)[C@H](C)O2)[C@H](C)[C@@H](O[C@@H]2O[C@H](C)C[C@H](N(C)C)[C@H]2O)[C@](C)(O)C[C@@H](C)/C(=N\OCCNCCCCCCNCc2cccc(C(F)(F)F)c2)[C@H](C)[C@@H](O)[C@]1(C)O` [Compound 19, Erythromycin A (E)-9-[0-[2-[6-[(3-trifluoromethylphenyl)methylamino]hexylamino]ethyl]oxime]], the ED50 was found to be 1.95 mg/kg in [1] (1 hour after infection) and 4.84 mg/kg in [1] (24 hours before infection). In addition, the MIC in [2] stood at 8 µg/mL (≈ 7.62 µM); in [3], 0.0156 µg/mL; in assay [4], 0.0156 µg/mL; in assay [5], 0.0078 µg/mL; in assay [6], 1 µg/mL (≈ 0.953 µM); in assay [7], 2 µg/mL (≈ 1.91 µM). The MIC in [8] came to 2 µg/mL (≈ 1.91 µM); in [9], 0.0156 µg/mL.

Consider `CC[C@H]1OC(=O)[C@H](C)[C@@H](O[C@H]2C[C@@](C)(OC)[C@@H](O)[C@H](C)O2)[C@H](C)[C@@H](O[C@@H]2O[C@H](C)C[C@H](N(C)C)[C@H]2O)[C@](C)(O)C[C@@H](C)/C(=N\OCCNCCCCCCNCc2ccccc2C(F)(F)F)[C@H](C)[C@@H](O)[C@]1(C)O` [Compound 21, Erythromycin A (E)-9-[0-[2-[6-[(2-trifluoromethylphenyl)methylamino]hexylamino]ethyl]oxime]], for which the figures for the ED50 in assay [1] (1 hour after infection) and in assay [1] (24 hours before infection) were 0.82 mg/kg and 5.95 mg/kg, respectively. Besides, the MIC in assay [2] is 16 µg/mL (≈ 15.2 µM); in assay [3], 0.0156 µg/mL; in assay [4] it was 0.0078 µg/mL; in assay [5], 0.0039 µg/mL; in assay [6] it was 1 µg/mL (≈ 0.953 µM); in assay [7] it was 4 µg/mL (≈ 3.81 µM). Further, the MIC was 2 µg/mL (≈ 1.91 µM) in [8] and 0.0078 µg/mL in assay [9].

Take `CC[C@H]1OC(=O)[C@H](C)[C@@H](O[C@H]2C[C@@](C)(OC)[C@@H](O)[C@H](C)O2)[C@H](C)[C@@H](O[C@@H]2O[C@H](C)C[C@H](N(C)C)[C@H]2O)[C@](C)(O)C[C@@H](C)/C(=N\OCCNCCCCCCNCc2ccc(C(F)(F)F)cc2)[C@H](C)[C@@H](O)[C@]1(C)O` [Compound 23, Erythromycin A (E)-9-[0-[2-[6-[(4-trifluoromethylphenyl)methylamino]hexylamino]ethyl]oxime]]: the ED50 in [1] (1 hour after infection) came out at 1.46 mg/kg. The MIC in [2] was 4 µg/mL (≈ 3.81 µM); in [3], 0.0156 µg/mL; in [4], 0.0156 µg/mL; in assay [5] it was 0.0078 µg/mL; in [6] it was 1 µg/mL (≈ 0.953 µM); in assay [7] it was 1 µg/mL (≈ 0.953 µM). Moreover, the MIC worked out at 2 µg/mL (≈ 1.91 µM) in [8] and 0.0156 µg/mL in assay [9].

For the molecule `CCCCOc1ccc(CNCCCCCCNCCO/N=C2\[C@H](C)C[C@@](C)(O)[C@H](O[C@@H]3O[C@H](C)C[C@H](N(C)C)[C@H]3O)[C@@H](C)[C@H](O[C@H]3C[C@@](C)(OC)[C@@H](O)[C@H](C)O3)[C@@H](C)C(=O)O[C@H](CC)[C@@](C)(O)[C@H](O)[C@H]2C)cc1` [Compound 26, Erythromycin A (E)-9-[0-[2-[6-[(4-n.butoxyphenyl)methylamino]hexylamino]ethyl]oxime]], the ED50 in assay [1] (1 hour after infection) and in assay [1] (24 hours before infection) was 6.11 mg/kg throughout. Moreover, the MIC in assay [2] worked out at 2 µg/mL (≈ 1.9 µM); in assay [3], 0.0078 µg/mL; in assay [4] it was 0.0312 µg/mL; in [5], 0.0156 µg/mL; in assay [6], 0.25 µg/mL (≈ 0.237 µM); in assay [7], 1 µg/mL (≈ 0.949 µM). The MIC was determined as 1 µg/mL (≈ 0.949 µM) in assay [8] and 0.0156 µg/mL in assay [9].

With `CC[C@H]1OC(=O)[C@H](C)[C@@H](O[C@H]2C[C@@](C)(OC)[C@@H](O)[C@H](C)O2)[C@H](C)[C@@H](O[C@@H]2O[C@H](C)C[C@H](N(C)C)[C@H]2O)[C@](C)(O)C[C@@H](C)/C(=N\OCCNCCCCCCNCc2cccc(Oc3ccccc3)c2)[C@H](C)[C@@H](O)[C@]1(C)O` [Compound 27, Erythromycin A (E)-9-[0-[2-[6-[(3-phenoxyphenyl)methylamino]hexylamino]ethyl]oxime]], the ED50 in assay [1] (1 hour after infection) and in assay [1] (24 hours before infection) was 15.6 mg/kg each time. The MIC in [2] came to 2 µg/mL (≈ 1.86 µM); in assay [3], 0.0078 µg/mL; in assay [4] it was 0.0156 µg/mL; in assay [5] it was 0.0078 µg/mL; in assay [6], 0.5 µg/mL (≈ 0.466 µM); in assay [7] it was 1 µg/mL (≈ 0.932 µM). In addition, the values for the MIC in assay [8] and in assay [9] were 1 µg/mL (≈ 0.932 µM) and 0.0078 µg/mL, respectively.

Take `CC[C@H]1OC(=O)[C@H](C)[C@@H](O[C@H]2C[C@@](C)(OC)[C@@H](O)[C@H](C)O2)[C@H](C)[C@@H](O[C@@H]2O[C@H](C)C[C@H](N(C)C)[C@H]2O)[C@](C)(O)C[C@@H](C)/C(=N\OCCNCCCCCCNCc2ccc(Oc3ccccc3)cc2)[C@H](C)[C@@H](O)[C@]1(C)O` [Compound 29, Erythromycin A (E)-9-[0-[2-[6-[(4-phenoxyphenyl)methylamino]hexylamino]ethyl]oxime]]: the ED50 in [1] (1 hour after infection) is 7.65 mg/kg; in assay [1] (24 hours before infection) it was 6.1 mg/kg. In addition, the MIC is 2 µg/mL (≈ 1.86 µM) in assay [2]; 0.0039 µg/mL in [3]; 0.0312 µg/mL in assay [4]; 0.0156 µg/mL in assay [5]; 0.5 µg/mL (≈ 0.466 µM) in [6]; 1 µg/mL (≈ 0.932 µM) in assay [7]. In addition, the MIC was found to be 1 µg/mL (≈ 0.932 µM) in assay [8] and 0.0078 µg/mL in [9].

The values are drawn from patent US5847092A (Zambon Group S.p.A., priority 1994, dated 1998).
